Where “and” joins values, the source holds several entries; their conditions need not be identical. Equal entries are not always repeated. Where two headings read alike, the source gives them in different places. Blank lines part the entries; values can stand above or below the compound they belong to.
Tests used:
[1] = Plasma pharmacokinetics of paracetamol, paracetamol glucuronide and paracetamol sulphate in rats (HPLC-UV, non-compartmental); type: in vivo, Wistar rats; conditions: for AUC0-t / AUC0-∞ / Cmax / AUC(0-inf) / Vd/F / k el / MRT last / AUMC0-t / t0.5: plasma; for MRT last: read-out: MRT0-t
Description: The experimental protocol for this study was reviewed and approved by the Local Ethics Committee. All procedures were performed in accordance with the European Union regulations concerning the handling and use of laboratory animals. The study was based on the required minimum number of animals and observation time in order to obtain consistent data. […] The animals were allowed to acclimatise for a week before the beginning of the experiments. The rats were divided into three groups. […] In order to make sure that the animals received the entire dose of the drug, 1 mL of DMSO was then administered to rinse the probe. 80 μL of blood was collected from each rat by cutting off a piece of his tail. […] The blood samples were transferred into heparinised tubes and they were centrifuged at 2880 g for 10 min at 4 °C.
The total time of analysis for each run was 10 min. The column temperature was maintained at 25 °C, the UV detection wavelength was set at 261 nm, and the injection volume was 50 μL. The validation was performed according to the guidelines of the European Medicines Agency (EMA) concerning validation of bioanalytical methods. […] 20 μL of the internal standard solution and 200 μL of 6% perchloric acid were added to 100 μL of the rat plasma. The samples were shaken for 30 s and then they were centrifuged for 10 min at 5000 g. About 100 μL of the resulting supernatants was transferred into glass inserts and a volume of 50 μL was injected onto HPLC column.
The pharmacokinetic parameters were estimated with the non-compartmental method, using Phoenix® WinNonlin® 7.0 software (Certara L.P.). kel – elimination rate constant; AUC0-t – area under the plasma concentration-time curve from zero to the time of the last measurable concentration; AUC0-∞ – area under the plasma concentration-time curve from zero to infinity; t0.5 – elimination half-life; Cl/F – clearance; Vd/F – volume of distribution; Cmax – maximum plasma concentration; tmax – time necessary to reach the maximum concentration; MRT0-t – mean residence time; AUMC0-t – area under the first moment curve.

[2] = liver metabolism; cited from earlier work
[3] = system: UGTs; conditions: in vitro, human liver microsomes; cited from earlier work
[4] = parameters: method as in PMID 28070719; reduction of exposure to sunitinib by paracetamol / reduction of exposure to sunitinib in liver by paracetamol / reduction of exposure to sunitinib in kidneys by paracetamol / reduction of exposure to sunitinib in brain by paracetamol: concentration or dose not given beside the values; conditions: cited from earlier work
[5] = male mice which received paracetamol; cited from earlier work
[6] = IL + PA vs IIIPA group, listed as paracetamol glucoronide
[7] = paracetamol 100 mg/kg p.o. + lapatinib 100 mg/kg p.o. (IL + PA), M ± SD
[8] = paracetamol 100 mg/kg p.o. alone (IIIPA), M ± SD
[9] = paracetamol + lapatinib 100 mg/kg p.o. each (IL + PA), M ± SD
[10] = male, Wistar, rat, po, 100 mg/kg, paracetamol 100 mg/kg p.o. + lapatinib 100 mg/kg p.o. (IL + PA), M ± SD
[11] = male, Wistar, rat, po, 100 mg/kg, paracetamol 100 mg/kg p.o. alone (IIIPA), M ± SD

SMILES: CC(=O)Nc1ccc(O[C@@H]2O[C@H](C(=O)O)[C@@H](O)[C@H](O)[C@H]2O)cc1 [paracetamol glucuronide]
decrease in AUC0-t ([1]; IL + PA vs IIIPA group): 26%
decrease in AUC0-∞ ([1]; IL + PA vs IIIPA group): 29%
decrease in Cmax ([1]; IL + PA vs IIIPA group): 24%
decrease in AUC0-t [1, 6]: ~25.5%
decrease in AUC0-∞ [1, 6]: ~28.6%
decrease in Cmax [1, 6]: about 24.4%
AUC0-t [1, 7]: 101.50 ± 22.02 (21.7) μg × h/mL
AUC0-∞ [1, 7]: 109.94 ± 22.89 (20.8) μg × h/mL
Cmax [1, 7]: 29.01 ± 7.62 (26.3) μg/mL
paracetamol glucuronide/paracetamol ratio, AUC0-t [1, 8]: 1.75 ± 0.47 (27.1)
paracetamol glucuronide/paracetamol ratio, Cmax [1, 8]: 1.67 ± 0.41 (24.7)
AUC0-t [1, 8]: 136.24 ± 23.58 (17.31) μg × h/mL
AUC0-∞ [1, 8]: 154.08 ± 35.58 (23.09) μg × h/mL
Cmax [1, 8]: 38.38 ± 3.75 (9.76) μg/mL
paracetamol glucuronide/paracetamol ratio, AUC0-t [1, 9]: 3.68 ± 1.67 (45.4)
paracetamol glucuronide/paracetamol ratio, AUC0-∞ [1, 9]: 3.36 ± 2.37 (70.6)
paracetamol glucuronide/paracetamol ratio, Cmax [1, 9]: 3.58 ± 1.85 (51.5)

SMILES: CNC(=O)c1cc(Oc2ccc(NC(=O)Nc3ccc(Cl)c(C(F)(F)F)c3)cc2)ccn1 [sorafenib]
inhibition of paracetamol glucuronidation [3]: inhibited paracetamol glucuronidation

SMILES: CCN(CC)CCNC(=O)c1c(C)[nH]c(/C=C2\C(=O)Nc3ccc(F)cc32)c1C [sunitinib]
effect of paracetamol on sunitinib concentration ([4]; female mice): did not affect the concentration
reduction of exposure to sunitinib in brain by paracetamol ([4]; female mice): 50%
reduction of exposure to sunitinib in kidneys by paracetamol ([4]; female mice): 20%
reduction of exposure to sunitinib in liver by paracetamol ([4]; female mice): 9%
reduction of exposure to sunitinib by paracetamol ([4]; male mice): 29%
reduction of exposure to sunitinib in brain by paracetamol ([4]; male mice): 47%
reduction of exposure to sunitinib in kidneys by paracetamol ([4]; male mice): 15%
reduction of exposure to sunitinib in liver by paracetamol ([4]; male mice): 15%
kidney sunitinib concentration vs control group [5]: 1.4 times
liver sunitinib concentration vs control group [5]: 2.2 times

SMILES: COc1cc2c(Nc3ccc(Br)cc3F)ncnc2cc1OCC1CCN(C)CC1 [vandetanib]
inhibition of paracetamol glucuronidation [3]: slight inhibitory effect

Further lines, with some results ahead:

increase in AUC0-t ([1]; IL + PA vs IIIPA group): ~61% and 61.4%
AUC0-t [1, 7]: 116.04 ± 27.02 (23.3) μg × h/mL
AUC0-∞ [1, 7]: 130.23 ± 31.32 (24.1) μg × h/mL
Cmax [1, 7]: 35.15 ± 6.61 (18.8) μg/mL
paracetamol sulphate/paracetamol ratio, AUC0-t [1, 8]: 0.91 ± 0.43 (47.3)
paracetamol sulphate/paracetamol ratio, AUC0-∞ [1, 8]: 1.05 ± 0.45 (43.1)
paracetamol sulphate/paracetamol ratio, Cmax [1, 8]: 0.88 ± 0.46 (52.7)
AUC0-t [1, 8]: 71.92 ± 31.04 (43.2) μg × h/mL
AUC0-∞ [1, 8]: 82.42 ± 32.71 (39.7) μg × h/mL
Cmax [1, 8]: 19.41 ± 7.05 (36.4) μg/mL
paracetamol sulphate/paracetamol ratio, AUC0-t [1, 9]: 4.27 ± 2.29 (53.5)
paracetamol sulphate/paracetamol ratio, AUC0-∞ [1, 9]: 4.86 ± 2.74 (56.5)
paracetamol sulphate/paracetamol ratio, Cmax [1, 9]: 4.73 ± 3.02 (64.0)
SMILES: CC(=O)Nc1ccc(OS(=O)(=O)O)cc1 [paracetamol sulphate]

decrease in AUC0-t ([1]; IL + PA vs IIIPA group): ~56.8%
decrease in AUC0-∞ ([1]; IL + PA vs IIIPA group): 48.8%
increase in MRT0-t ([1]; IL + PA vs IIIPA group): 12.1%
increase in Vd/F ([1]; IL + PA vs IIIPA group): 351.5%
AUC(0-inf) [1, 10]: 45400 ± 21200 ng·h/mL
Vd/F [1, 10]: 8.94 ± 8.04 L
k el [1, 10]: 6.67e-05 s⁻¹
AUC0-t ([1]; male, Wistar, rat, po, 100 mg/kg, paracetamol 100 mg/kg p.o. + lapatinib 100 mg/kg p.o. (IL + PA), M ± SD, read-out: AUC0-t): 34800 ± 20100 ng·h/mL
Cmax ([1]; male, Wistar, rat, po, 100 mg/kg, paracetamol 100 mg/kg p.o. + lapatinib 100 mg/kg p.o. (IL + PA), M ± SD, read-out: Cmax): 10900 ± 6880 ng/mL
MRT last [1, 10]: 2.88 ± 0.27 h
AUC(0-inf) [1, 11]: 88600 ± 8960 ng·h/mL
Vd/F [1, 11]: 1.98 ± 0.63 L
k el [1, 11]: 9.17e-05 s⁻¹
AUC0-t ([1]; male, Wistar, rat, po, 100 mg/kg, paracetamol 100 mg/kg p.o. alone (IIIPA), M ± SD, read-out: AUC0-t): 80500 ± 12100 ng·h/mL
Cmax ([1]; male, Wistar, rat, po, 100 mg/kg, paracetamol 100 mg/kg p.o. alone (IIIPA), M ± SD, read-out: Cmax): 24700 ± 8430 ng/mL
MRT last [1, 11]: 2.57 ± 0.3 h
AUMC0-t [1, 7]: 97.11 ± 52.00 (53.6) μg × h^2/mL
t0.5 [1, 7]: 5.30 ± 6.92 (130.7) h
AUMC0-t [1, 8]: 203.85 ± 18.15 (8.9) μg × h^2/mL
t0.5 [1, 8]: 2.26 ± 0.70 (31.0) h
SMILES: CC(=O)Nc1ccc(O)cc1 [paracetamol, Paracetamol]
fraction oxidised to toxic metabolite NAPQI [2]: less than 10%
fraction transformed by glucuronidation [2]: 40–60%
fraction transformed by sulphation [2]: 20–46%

Reference: PMC6153549 (Investigational New Drugs, 2018)
